# Reference: patent publication US20240327469A1, “FUNCTIONALISED POLYPEPTIDES, NANOPARTICLES AND USES THEREOF” (priority 2021, published 2024)
# Counter-ions that a name gives are not always drawn.
# Legend:
# MCF-7 = assay: In vitro cytotoxicity (alamarBlue); type: cell-based; details: Homo sapiens, MCF7; MCF-7, 48 h
# Method: (§1) Doxorubicin hydrochloride (DOX) was used as the positive control. For the MCF-7 and MCF-7/ADR, the initial concentration of DOX used was 10 μg/mL and 100 μg/mL, respectively.
# MCF-7/ADR = assay: In vitro cytotoxicity (alamarBlue); type: cell-based, human
# Method: as §1
# MCF-7 cells [1] = assay: Cellular morphology staining; type: cell-based, human; details: MCF-7, 24 h; PLL-Gua and Gua-NPs 25 μg/mL, DOX 5.8 μg/mL
# Method: (§2) MCF-7 and MCF-7/ADR cells were seeded at a density of 1000 cells/well in 50 μL medium, in a 384-well plate (PerkinElmer View Plate-384 Black). […] Treatment was performed at final concentrations of 25 μg/mL for PLL-Gua and Gua-NPs (on PLL-Gua basis) and 5.8 μg/mL for DOX, with a final volume of 40 μL per well. […] Subsequently, mitochondria were stained with Mito Tracker Deep Red solution in medium, with a final concentration of 100 nM. […] To fix the cells, 20 μL of 16% formaldehyde in PBS were added to each well (final concentration: 4%) and incubated in the dark at room temperature for 20 min. The cells were washed two times with 70 μL of Hanks' balanced salt solution (HBSS). […] The cells were incubated in the dark at room temperature for 30 min. Then, the cells were washed three times with 70 μL HBSS. The HBSS was not aspirated after the final washing step. The plates were sealed and centrifuged for 1 min at 500 rpm. The plate was then imaged using an Opera Phenix high content screening microscope (PerkinElmer) in 4 channels (Ex405/Em456; Ex488/Em522; Ex561/Em599; Ex640/Em706) with 9 sites per well and 63× magnification (binning 2).
# MCF-7/ADR cells = assay: Cellular morphology staining; type: cell-based, human; details: 24 h, PLL-Gua and Gua-NPs 25 μg/mL, DOX 5.8 μg/mL
# Method: as §2
# MCF-7 cells [2] = assay: Inhibition of cell migration (wound scratch assay); type: cell-based, human; details: 24 h at respective IC50
# Method: MCF-7 cells (8×10^5/well) were seeded in 6-well plates and incubated overnight for cell adhesion. To create a scratch, a 200 μL pipet tip was used to scrape a straight line through the cell layer. The old media was removed and washed with PBS, and the cells observed under a microscope to acquire images of the original scratch. […] After that, the scratches were observed and imaged using a microscope (Leica, Germany).
smiles,measurement,setting,value
"COc1cccc2c1C(=O)c1c(O)c3c(c(O)c1C2=O)C[C@@](O)(C(=O)CO)C[C@@H]3O[C@H]1C[C@H](N)[C@H](O)[C@H](C)O1 [DOX, Doxorubicin hydrochloride]",IC50,MCF-7,0.13 µg/mL
same,"difference of IC50 value, MCF-7/ADR vs MCF-7",MCF-7/ADR,769 fold
same,cellular morphology,MCF-7 cells [1],drastic decrease in the staining of DNA and RNA
same,cellular morphology,MCF-7/ADR cells,did not induce such changes
same,MCF-7 cell migration,MCF-7 cells [2],reduced wound gap
